The target in data set [1] is T1, MOR (Rattus norvegicus, UniProt P33535).
T1 construct: from tissue
Briefly: Opioid receptor binding, MOR, rat brain membranes.

Data set [2] addresses T2, DOR (Rattus norvegicus, UniProt P33533).
T2 construct: from tissue
Briefly: Opioid receptor binding, DOR, rat brain membranes.

The target in data set [3] is T3, human MOR (Homo sapiens, UniProt P35372).
T3 construct: expressed in transfected cells; host or cells: CHO cells
The data set is described as follows: biochemical. Conditions: for Emax: read-out: [35S]GTPγS binding, MOR % stim. The data set is classed as biochemical. The method, then:
A number of compounds were evaluated for agonist potency and efficacy at the MOR using the [^35S]GTPγS functional assay in CHO cells expressing human MOR receptors.

Data set [4] relates to mouse vas deferens preparation. Briefly: Mouse vas deferens bioassay. The note with it: for IC50: read-out: IC50, agonist potency in mouse vas deferens. As to the method:
The mouse vas deferens bioassay was performed as described in: M. Spetea et al., Eur. J. Pharmacol. 2004, 483, 301-308

Data set [5] has as its target T4, KOR (Cavia porcellus, UniProt P41144).
T4 construct: from tissue
Briefly: Opioid receptor binding, KOR, guinea pig brain membranes.

Data set [6] is described as follows: pH-metric determination of pKa, logP and logD in octanol/water (PCA200/Cheqsol). The class given is physicochemical. As to the method: All titrations were performed in 0.15M KCl solution under argon gas. The pKa was determined by the shape of the titration curve and partition coefficients were determined by the shift in titration curve of pKa in the presence of octanol. The analysis of pH-metric data was performed by RefinementPro software (version 2.0, Sirius, Sussex, UK).

For data set [7] the following is noted: cited from earlier work.
Data set [8] deals with rats. The data set is described as follows: Tail-flick test in rats after oral administration. The data set is classed as in vivo, rat. Conditions: for ED50: Rattus norvegicus, po. The method, then: The rat tail-flick test was performed as described in: S. Furst et. al. J. Pharmacol. Exp. Ther. 2005, 312, 609-618
(Hot-plate and tail-flick tests time the reaction to a heat stimulus.)

The conditions of data set [9]: Riba P. et al. 2010, cited from earlier work.
A short description of data set [10]: Permeation study through rat small intestine in Ussing type diffusion chambers. The data set is classed as in vitro ADME. Conditions: apical to basolateral, pH 7.5, no permeation enhancer, three hours incubation.
Protocol: Ussing type diffusion chambers with a surface area of 0.64 cm^2 were utilized. Rat small intestine was excised immediately after sacrificing the animal and mounted in the chamber. The donor and acceptor compartments of the chamber were filled with 1.0 ml of the freshly prepared incubation medium containing either 40 mM HEPES buffer (HEPES=2-(4-(2-hydroxyethyl)-1-piperazinyl)-ethane sulfonic acid) adjusted to pH 7.5 or 6.5 or 50 mM sodium acetate buffer adjusted to pH 5.5. […] The samples were centrifuged at 7,200 g for 5 minutes and the supernatant was analyzed via HPLC. Cumulative corrections were performed for the previously removed samples to determine the total amount permeated.
Setting [11] is: Binding Ki (nM) MOR, in vitro binding assay, rat brain membranes.
Setting [12] is: Binding Ki MOR, Table 1-4, rat brain membranes.
The mark [13] stands for this setting: Binding Ki (nM) DOR, in vitro binding assay, rat brain membranes.
Setting [14] is: Binding Ki DOR, Table 1-4, rat brain membranes.
The mark [15] stands for this setting: Binding Ki (nM) KOR, in vitro binding assay, guinea pig brain membranes.
Where [16] appears, read: Binding Ki KOR, Table 1-4, guinea pig brain membranes.
[17] abbreviates: 0.5 h, read-out: ED50 (p.o., mg/kg) 30 min, 30 min.
Where [18] appears, read: read-out: ED50 (p.o., mg/kg) 1 h, 1 h.
The mark [19] stands for this setting: read-out: ED50 (p.o., mg/kg) 2 h, 2 h.
The mark [20] stands for this setting: read-out: ED50 (p.o., mg/kg) 3 h, 3 h.

A word on the Ki: it is a measure of affinity in units of concentration, obtained from inhibition or displacement. One may read the EC50 as the concentration needed to bring the measured effect to its halfway point. The IC50 is the concentration that gives 50% inhibition. One may read the logP as a log measure of how a compound divides between an organic and an aqueous phase. The term pKa denotes the negative logarithm of the acid dissociation constant. As usually defined, the logD is the decadic logarithm of the distribution of all forms, ionised or not, between an organic phase and buffer at a given pH.

Like-named read-outs stand apart in the source and are kept apart here.

T3 sequence (P35372 whole entry): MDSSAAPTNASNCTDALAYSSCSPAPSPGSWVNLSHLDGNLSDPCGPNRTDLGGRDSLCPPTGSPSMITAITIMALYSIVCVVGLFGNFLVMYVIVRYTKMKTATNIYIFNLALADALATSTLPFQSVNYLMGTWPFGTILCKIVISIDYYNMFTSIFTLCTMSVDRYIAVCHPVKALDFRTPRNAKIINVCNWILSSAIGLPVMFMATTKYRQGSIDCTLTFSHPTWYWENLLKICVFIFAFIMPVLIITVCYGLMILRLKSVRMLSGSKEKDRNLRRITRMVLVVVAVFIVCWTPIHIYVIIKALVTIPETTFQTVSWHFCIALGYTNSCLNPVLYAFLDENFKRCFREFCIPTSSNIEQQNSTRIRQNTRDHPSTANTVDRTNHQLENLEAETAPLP
T4 sequence (P41144 whole entry): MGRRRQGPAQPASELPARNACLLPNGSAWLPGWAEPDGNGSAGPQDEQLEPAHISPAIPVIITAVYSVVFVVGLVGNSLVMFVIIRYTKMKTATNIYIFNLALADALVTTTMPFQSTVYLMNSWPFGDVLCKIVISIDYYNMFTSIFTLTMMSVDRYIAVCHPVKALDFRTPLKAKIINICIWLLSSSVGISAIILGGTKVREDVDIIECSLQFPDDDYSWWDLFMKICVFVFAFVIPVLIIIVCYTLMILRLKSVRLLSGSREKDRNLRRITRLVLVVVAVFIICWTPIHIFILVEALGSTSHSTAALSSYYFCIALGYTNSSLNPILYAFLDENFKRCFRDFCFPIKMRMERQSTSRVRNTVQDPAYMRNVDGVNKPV
T2 sequence (P33533 whole entry): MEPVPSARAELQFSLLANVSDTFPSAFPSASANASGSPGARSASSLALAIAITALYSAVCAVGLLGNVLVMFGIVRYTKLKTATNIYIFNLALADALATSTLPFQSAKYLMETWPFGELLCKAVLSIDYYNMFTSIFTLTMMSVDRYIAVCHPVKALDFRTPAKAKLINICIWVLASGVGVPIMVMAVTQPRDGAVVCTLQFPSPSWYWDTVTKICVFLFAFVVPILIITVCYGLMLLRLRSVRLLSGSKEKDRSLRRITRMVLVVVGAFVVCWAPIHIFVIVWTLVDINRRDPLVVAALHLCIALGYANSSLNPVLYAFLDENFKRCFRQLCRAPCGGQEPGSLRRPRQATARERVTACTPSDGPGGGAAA
T1 sequence (P33535 whole entry): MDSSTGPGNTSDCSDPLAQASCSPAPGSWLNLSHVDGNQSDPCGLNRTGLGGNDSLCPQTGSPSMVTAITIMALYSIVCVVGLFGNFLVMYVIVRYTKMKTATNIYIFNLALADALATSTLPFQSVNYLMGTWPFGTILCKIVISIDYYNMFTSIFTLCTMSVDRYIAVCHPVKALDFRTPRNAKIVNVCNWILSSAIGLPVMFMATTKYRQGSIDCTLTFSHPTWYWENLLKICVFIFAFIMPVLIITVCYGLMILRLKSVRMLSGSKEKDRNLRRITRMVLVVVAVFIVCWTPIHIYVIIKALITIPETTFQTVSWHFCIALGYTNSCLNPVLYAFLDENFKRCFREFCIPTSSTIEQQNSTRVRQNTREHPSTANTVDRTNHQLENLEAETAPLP

On to `CO[C@@]12CCC(=O)[C@@H]3Oc4c(O)ccc5c4[C@@]31CCN(C)[C@@H]2C5` [Compound 14-OMO, 14-O-methyloxymorphone, reference compound], for which the inhibitory constant (Ki) in data set [1] (Table 1-4, rat brain membranes, read-out: Binding Ki MOR) came out at 0.1 nM; in data set [1] (in vitro binding assay, rat brain membranes, read-out: Binding Ki (nM) MOR), 0.1 nM; in [2] (Table 1-4, rat brain membranes, read-out: Binding Ki DOR), 4.8 nM; in data set [2] (in vitro binding assay, rat brain membranes, read-out: Binding Ki (nM) DOR), 4.8 nM. Moreover, the EC50 in data set [3] (Table 1-4, human MOP expressed in CHO cells, read-out: [35S]GTPγS binding, MOR EC50) was 1.17 nM. The “[35S]GTPγS binding, MOR % stim.” value in [3] (Table 1-4, measured against DAMGO) was 127%. The IC50 in data set [4] came out at 7.76 nM.
With `C[C@@H](NC(=O)[C@@H](N)Cc1ccc(O)cc1)C(=O)NCC(=O)N(C)[C@@H](Cc1ccccc1)C(=O)NCCO` [DAMGO, reference compound], the IC50 in [4] was determined as 76.6 nM.
On to `CO[C@@]12CC[C@H](N[C@@H](CCCCN)C(=O)O)[C@@H]3Oc4c(O)ccc5c4[C@@]31CCN(C)[C@@H]2C5` [Compound 38], for which the inhibition constant (Ki) in data set [1] (setting [11]) was determined as 0.19 nM; in data set [1] (setting [12]) it was 0.19 nM; in [2] (setting [13]), 1.27 nM; in data set [2] (setting [14]), 1.27 nM; in data set [5] (setting [15]), 12.6 nM; in data set [5] (setting [16]), 12.6 nM. Further, the log partition coefficient (logP) in [6] (octanol/water, 25° C.) was -0.66.
On to `CO[C@@]12CC[C@H](NCCCC(=O)O)[C@@H]3Oc4c(O)ccc5c4[C@@]31CCN(C)[C@@H]2C5` [Compound 15], for which, in data set [3], it took 1.9 nM to reach a half-maximal effect (EC50) and the Emax turned out to be 113%. For the same molecule, the logP in data set [6] (octanol/water, 25° C.) was -0.36.
In [6] (octanol/water, 25° C.), `CO[C@@]12CC[C@@H](N[C@@H](CC(=O)O)C(=O)O)[C@@H]3Oc4c(O)ccc5c4[C@@]31CCN(C)[C@@H]2C5` [Compound 45] showed a logP of -2.2.
Consider `CO[C@@]12CC[C@@H](N[C@H](C(=O)O)[C@@H](C)O)[C@@H]3Oc4c(O)ccc5c4[C@@]31CCN(C)[C@@H]2C5` [Compound 35], for which the inhibition constant (Ki) worked out at 0.79 nM in data set [1] (setting [11]); 0.79 nM in data set [1] (setting [12]); 5.16 nM in [2] (setting [13]); 5.16 nM in data set [2] (setting [14]); 58.6 nM in data set [5] (setting [15]); 58.6 nM in data set [5] (setting [16]). Also, the lipophilicity (logP) in data set [6] (octanol/water, 25° C.) was -1.38.
Take `C[C@H]1CN(C[C@H](Cc2ccccc2)C(=O)NCC(=O)O)CC[C@@]1(C)c1cccc(O)c1` [alvimopan]: in [7], the oral bioavailability entry was “approx. 6%”.
Consider `CCOC(=O)CN[C@@H]1CC[C@@]2(OC)[C@H]3Cc4ccc(O)c5c4[C@@]2(CCN3C)[C@H]1O5` [HS731-Et ester], for which the figures for the Ki in data set [1] (setting [11]), in data set [2] (setting [13]) and in data set [5] (setting [15]) were 0.74 nM, 0.81 nM and 21.9 nM, respectively. In [4] (Mus musculus), the 50% inhibitory concentration (IC50) was 23.8 nM. In addition, the “times less potent than HS731 in mouse vas deferens bioassay” value in data set [4] (relative to HS731) is “about 3.5”. Moreover, the ED50 was more than 2.5 mg/kg in [8] (setting [17]); 2.34 mg/kg in data set [8] (setting [18]); 0.85 mg/kg in data set [8] (setting [19]); 0.71 mg/kg in data set [8] (setting [20]); 0.82 mg/kg in [8] (read-out: ED50 (p.o., mg/kg) 4 h, 4 h). For the same molecule, the “antinociceptive potency, fold higher than HS731 after 1 h” value in [8] (p.o., 1 h, relative to HS731) is given as “ca. 2 fold”. In addition, the “antinociceptive potency, fold higher than HS731 after 2 h” value in data set [8] (p.o., 2 h, relative to HS731) is “ca. 8 fold”. For the same molecule, the “antinociceptive potency, fold higher than HS731 after 3 h” value in data set [8] (p.o., 3 h, relative to HS731) is given as “ca. 9 fold”.
`CN1CC[C@]23c4c5ccc(O)c4O[C@H]2C(=O)CC[C@@]3(O)[C@H]1C5` [OMO, oxymorphone]: the “logD (pH = 7.4)” value in data set [9] (pH 7.4, published data) is reported as −0.32. In addition, in data set [9] (published data), the logP was 0.67 and the pKa is given as 8.33.
As for `CCO.CO[C@@]12CC[C@@H](NCC(=O)O)[C@@H]3Oc4c(O)ccc5c4[C@@]31CCN(C)[C@@H]2C5.Cl.Cl.O` [HS731, 2-[(4,5α-EPOXY-3-HYDROXY-14β-METHOXY-17-METHYLMORPHINAN-6β-YL)AMINO]ACETIC ACID DIHYDROCHLORIDE HYDRATE ETHANOLATE], the “permeation through rat intestinal mucosa” value in data set [10] amounted to 11%. Besides, a half-maximal effect in [3] (EC50) was put at 3.88 nM. Also, the Emax in data set [3] was determined as 107%. The pKa in [6] ([…] KCl solution (aqueous titration), 25° C., 0.15M KCl) was 2.4. The lipophilicity (logP) in [6] (octanol/water, 25° C.) is -0.78. Moreover, in data set [6] (octanol/water, pH 7.4, 25° C.), the logD is -2.06. Further, in data set [4] (Mus musculus), the IC50 amounted to 7 nM. In addition, the ED50 is 21 mg/kg in [8] (setting [17]), 5.52 mg/kg in [8] (setting [18]), 6.78 mg/kg in data set [8] (setting [19]) and 6.33 mg/kg in data set [8] (setting [20]).

Values taken from patent publication US20170217976A1, “6-(AMINO ACID)-MORPHINAN DERIVATIVES IN COMBINATION WITH PERMEATION […] FOR USE AS AN ORALLY, […], TRA[…] NASALLY AD[…]” (C[…], priority 2014, published 2017).
